Series [1] deals with Liver microsome. Description: Intrinsic clearance in human liver microsomes at 2.5 uM. It counts as ADME.
Series [2] relates to Liver microsome. The experiment in a line: Intrinsic clearance in Wistar rat liver microsomes at 2.5 uM. It counts as ADME.
In series [3] the target is T1, Metabotropic glutamate receptor 5 (Rattus norvegicus, UniProt P31424). Description: Displacement of [3H]MPEP from rat mGlu5 receptor expressed in rat cerebrocortical membrane measured after 1 hr. It counts as cell membranes.
Series [4] concerns the target T1, Metabotropic glutamate receptor 5. The experiment in a line: Displacement of [3H]-MPEP from rat mGlu5 receptor expressed in HEK293 cell membranes after 1 hr by scintillation counting analysis.
Series [5] has as its target T2, Metabotropic glutamate receptor 5 (Homo sapiens, UniProt P41594). The experiment in a line: Displacement of [3H]-MPEP from human mGlu5 receptor expressed in HEK293 cell membranes after 1 hr by scintillation counting analysis.
The test system of series [6] is Rattus norvegicus. Description: Anxiolytic activity in water deprived rat assessed as increase in number of accepted shocks at 1 mg/kg, po after 1 hr by Vogel punished drinking test. It counts as functional, organism-based.
In series [7] the test system is Homo sapiens. The experiment in a line: Toxicity in human assessed as change in ECG administered as bid for 10 to 14 days by multiple ascending dose study. It counts as organism-based. To be noted: in vivo.
For series [8], the system named is Homo sapiens. The experiment in a line: Toxicity in human assessed as change in ECG administered as qd for 10 to 14 days by multiple ascending dose study. It counts as organism-based. To be noted: in vivo.
The subject of series [9] is Homo sapiens. The experiment in a line: Toxicity in human assessed as suicidal ideation and behavior administered as bid for 10 to 14 days by multiple ascending dose study. It counts as organism-based. To be noted: in vivo.
Series [10] relates to Homo sapiens. Description: Toxicity in human assessed as suicidal ideation and behavior administered as qd for 10 to 14 days by multiple ascending dose study. It counts as organism-based. To be noted: in vivo.
The species entered for series [11] is Homo sapiens. Description: Toxicity in human at 1 to 120 mg by single ascending dose study. It counts as organism-based. The note with it: in vivo.
Series [12] deals with T2, Metabotropic glutamate receptor 5. The experiment in a line: Displacement of [3H]MPEP from recombinant human mGluR5a expressed in A18 cells measured after 1 hr. It counts as cell-based.
Series [13] relates to Rattus norvegicus. The experiment in a line: Anxiolytic activity in water deprived rat assessed as increase in number of accepted shocks at 10 mg/kg, po after 1 hr by Vogel punished drinking test. It counts as functional, organism-based.

Data on ten compounds can be found in ChEMBL document CHEMBL3763102, “4-Aryl-3-arylsulfonyl-quinolines as negative allosteric modulators of metabotropic GluR5 receptors: From HTS hit to development candidate” (Bioorg Med Chem Lett, 2016).

Calls of active or inactive are those of the source. The calls are words filed in the database; no cut-off is given here.

T2 sequence (P41594 whole entry): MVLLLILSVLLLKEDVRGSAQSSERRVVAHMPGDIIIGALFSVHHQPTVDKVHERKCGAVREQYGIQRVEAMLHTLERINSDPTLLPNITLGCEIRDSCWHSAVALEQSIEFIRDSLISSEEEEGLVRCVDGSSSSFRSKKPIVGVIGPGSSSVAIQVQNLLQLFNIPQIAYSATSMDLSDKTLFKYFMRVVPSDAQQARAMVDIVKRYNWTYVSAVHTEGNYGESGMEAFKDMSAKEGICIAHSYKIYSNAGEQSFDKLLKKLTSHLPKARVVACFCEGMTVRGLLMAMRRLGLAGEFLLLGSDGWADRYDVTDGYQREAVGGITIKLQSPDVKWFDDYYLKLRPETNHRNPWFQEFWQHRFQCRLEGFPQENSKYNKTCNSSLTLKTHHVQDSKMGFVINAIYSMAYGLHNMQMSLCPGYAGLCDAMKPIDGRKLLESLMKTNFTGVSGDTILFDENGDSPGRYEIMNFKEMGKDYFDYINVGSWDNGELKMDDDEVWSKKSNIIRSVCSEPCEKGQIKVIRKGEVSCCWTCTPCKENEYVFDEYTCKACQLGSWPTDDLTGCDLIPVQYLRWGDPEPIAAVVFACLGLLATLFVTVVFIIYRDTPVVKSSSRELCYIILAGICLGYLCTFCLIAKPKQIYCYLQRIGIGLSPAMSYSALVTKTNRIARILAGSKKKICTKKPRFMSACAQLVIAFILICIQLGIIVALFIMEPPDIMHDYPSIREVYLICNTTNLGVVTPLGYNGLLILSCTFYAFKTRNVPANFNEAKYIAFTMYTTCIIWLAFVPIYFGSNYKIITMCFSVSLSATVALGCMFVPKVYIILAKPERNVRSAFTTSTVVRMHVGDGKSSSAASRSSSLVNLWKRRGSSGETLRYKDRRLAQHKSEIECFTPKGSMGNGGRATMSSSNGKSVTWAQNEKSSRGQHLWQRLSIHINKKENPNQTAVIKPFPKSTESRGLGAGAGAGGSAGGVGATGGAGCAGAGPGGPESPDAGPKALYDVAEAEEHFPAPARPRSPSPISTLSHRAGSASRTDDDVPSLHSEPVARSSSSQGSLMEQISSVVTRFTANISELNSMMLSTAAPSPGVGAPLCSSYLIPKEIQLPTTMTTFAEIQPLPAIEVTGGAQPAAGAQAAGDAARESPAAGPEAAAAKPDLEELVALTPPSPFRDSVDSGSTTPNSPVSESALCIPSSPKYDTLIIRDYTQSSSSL
T1 sequence (P31424 whole entry): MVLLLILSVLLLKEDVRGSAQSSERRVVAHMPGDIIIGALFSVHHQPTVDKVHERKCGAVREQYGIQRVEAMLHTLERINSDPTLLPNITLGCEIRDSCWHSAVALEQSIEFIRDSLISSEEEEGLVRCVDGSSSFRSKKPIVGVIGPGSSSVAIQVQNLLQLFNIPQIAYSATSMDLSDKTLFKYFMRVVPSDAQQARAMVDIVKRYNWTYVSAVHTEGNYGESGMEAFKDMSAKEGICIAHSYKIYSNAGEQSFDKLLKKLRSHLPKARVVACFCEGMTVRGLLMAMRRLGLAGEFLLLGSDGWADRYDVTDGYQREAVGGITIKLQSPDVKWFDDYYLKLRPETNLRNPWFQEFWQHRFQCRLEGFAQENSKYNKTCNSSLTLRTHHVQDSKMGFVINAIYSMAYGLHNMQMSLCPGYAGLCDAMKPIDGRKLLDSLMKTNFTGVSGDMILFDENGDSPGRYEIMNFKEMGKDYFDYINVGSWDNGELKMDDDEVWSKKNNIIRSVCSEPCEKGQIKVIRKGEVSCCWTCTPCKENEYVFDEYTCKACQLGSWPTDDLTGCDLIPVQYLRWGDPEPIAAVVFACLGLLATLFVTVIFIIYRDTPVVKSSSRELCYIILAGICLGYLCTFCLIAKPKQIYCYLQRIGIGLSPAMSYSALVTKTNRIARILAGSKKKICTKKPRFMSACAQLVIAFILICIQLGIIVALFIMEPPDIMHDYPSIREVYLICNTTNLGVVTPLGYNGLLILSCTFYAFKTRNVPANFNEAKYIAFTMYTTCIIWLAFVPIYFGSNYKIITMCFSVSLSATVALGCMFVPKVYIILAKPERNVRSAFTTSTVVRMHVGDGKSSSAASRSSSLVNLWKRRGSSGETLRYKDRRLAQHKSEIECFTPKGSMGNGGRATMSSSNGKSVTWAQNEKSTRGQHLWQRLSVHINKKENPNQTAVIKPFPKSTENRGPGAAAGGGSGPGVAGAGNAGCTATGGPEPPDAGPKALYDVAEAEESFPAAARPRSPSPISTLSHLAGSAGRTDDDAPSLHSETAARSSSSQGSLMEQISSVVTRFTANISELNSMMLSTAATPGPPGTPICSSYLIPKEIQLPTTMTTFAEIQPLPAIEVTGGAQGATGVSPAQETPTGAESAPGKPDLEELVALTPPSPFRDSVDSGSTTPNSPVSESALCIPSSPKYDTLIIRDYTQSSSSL

As for `O=S(=O)(c1cc(Cl)cc(Cl)c1)c1cnc2cc(F)ccc2c1-c1ccc(F)cc1`, the figures for the CLH with Liver microsome [1] and in the series with Liver microsome [2] were 0.2 mL/min/g and 1.03 mL/min/g, respectively. For the same compound, in [3], the affinity corresponds to a Ki of 11.5 nM.

`O=S(=O)(c1ccc(Cl)c(F)c1)c1cnc2cc(F)ccc2c1-c1ccc(F)cc1`: the results for the CLH in the series on Liver microsome [1] and in the series on Liver microsome [2] were 0.5 mL/min/g and 0.88 mL/min/g, respectively. For the same compound, affinity in [3] was put at a Ki of 5.2 nM.

Consider `O=S(=O)(c1ccc(F)c(F)c1)c1cnc2c(F)cccc2c1-c1ccc(Cl)cc1`, for which the CLH with Liver microsome [1] came to 0.28 mL/min/g; in the series with Liver microsome [2], 0.19 mL/min/g. Moreover, in [3], the Ki was 8.4 nM.

As to `CN1CC(=O)N=C1NC(=O)Nc1cccc(Cl)c1` [FENOBAM ANHYDROUS], the IC50 in [4] and in [5] was 51 nM in each case.

On to `N#Cc1cccc(S(=O)(=O)c2cnc3cc(F)ccc3c2-c2ccc(Cl)cc2)c1`, for which the result in the series on Rattus norvegicus [6] was Active. Besides, the CLH with Liver microsome [1] turned out to be 0.31 mL/min/g; with Liver microsome [2] it was 0.25 mL/min/g. The Activity entry in the series with Homo sapiens [7], with Homo sapiens [8], with Homo sapiens [9], in the series on Homo sapiens [10] and in the series listed under Homo sapiens [11] was “Non-toxic” each time. Also, affinity in series [3] was put at a Ki of 5.3 nM.

As for `Cc1ccc(S(=O)(=O)c2cnc3ccccc3c2-c2ccc(Cl)cc2)cc1`, the CLH with Liver microsome [1] was found to be 2.12 mL/min/g; with Liver microsome [2], 17.5 mL/min/g. Also, the results for the Ki in series [12] and in [3] were 17 nM and 9.5 nM, respectively.

As for `Cc1ccc(S(=O)(=O)c2sc3ncccc3c2-c2ccc(Cl)cc2)cc1`, the CLH in the series on Liver microsome [1] came to 2.31 mL/min/g; with Liver microsome [2] it was 13.8 mL/min/g. Further, in series [3], the Ki is 15 nM.

For the compound `Cc1ccc(S(=O)(=O)c2cnc3ccccc3c2N2CCC(C)CC2)cc1`, the CLH in the series on Liver microsome [1] stood at 3.54 mL/min/g; in the series on Liver microsome [2], 17.4 mL/min/g. The compound further returned a Ki in series [3] of 22 nM.

Take `Cc1nc(C#Cc2cccnc2)cs1`: in the series with Rattus norvegicus [13], the outcome was Active.

For the compound `Cc1ccc(S(=O)(=O)c2cnc3ccccc3c2N2CCOCC2)cc1C`, the CLH worked out at 3.37 mL/min/g in the series with Liver microsome [1] and 18 mL/min/g with Liver microsome [2]. Further, the Ki came to 52 nM in series [12] and 68 nM in [3].
